Measured values: the supplement of paper PMC10307832

Assays:
Experiment in all cases: relative viability (nuclei count vs DMSO), 5 days (fraction); higher = more cells survive
[1] = compound: C1CSC2=C(C(=O)N1)SC3=C2C=C(C=C3)O [kb NB 142-70] + C[C@]1(O)C[C@@H](c2nc(-c3ccc4ccc(-c5ccccc5)nc4c3)c3c(N)nccn32)C1 [Linsitinib] (partner 1 µM)
How it was run: (§1)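 Cells from lung cancer lines were seeded into 1536-well plates and, one day later, dosed by pin tool. Treatments were either a single drug or a fixed dose of an anchor drug with five library-drug doses (not always all listed) in √10 steps. After 5 days, nuclei were stained in a one-step fixation (final 0.05% Triton X-100, 1% formaldehyde, 1 ug/ml Hoechst) and counted on 4× images, and relative viability is the treated-to-vehicle nuclei ratio, as the median of duplicate plates.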

[2] = compound: NCC(=O)Nc1ccc(-n2nc(C(F)(F)F)cc2-c2ccc3c(ccc4ccccc43)c2)cc1 + Cc1nc(NC(=O)N2CCC[C@H]2C(N)=O)sc1-c1ccnc(C(C)(C)C(F)(F)F)c1 [Alpelisib] (partner 2 µM)
How it was run: as §1

[3] = compound: C1CSC2=C(C(=O)N1)SC3=C2C=C(C=C3)O [kb NB 142-70] + CC1(C)CCC(c2ccc(Cl)cc2)=C(CN2CCN(c3ccc(C(=O)NS(=O)(=O)c4ccc(N[C@H](CCN5CCOCC5)CSc5ccccc5)c(S(=O)(=O)C(F)(F)F)c4)cc3)CC2)C1 [Navitoclax] (partner 0.5 µM)
How it was run: as §1

[4] = compound: NCC(=O)Nc1ccc(-n2nc(C(F)(F)F)cc2-c2ccc3c(ccc4ccccc43)c2)cc1 + N=C(N)NC(=N)NCCc1ccccc1 [Phenformin] (partner 250 µM)
How it was run: as §1

[5] = compound: C1CSC2=C(C(=O)N1)SC3=C2C=C(C=C3)O [kb NB 142-70] + CC(=O)c1c(C)c2cnc(Nc3ccc(N4CCNCC4)cn3)nc2n(C2CCCC2)c1=O [Palbociclib] (partner 0.5 µM)
How it was run: as §1

Cell Line	relative viability ([1]; first compound 0.1 µM)	relative viability ([1]; first compound 1 µM)	relative viability ([1]; first compound 3.162 µM)	relative viability ([2]; first compound 0.02 µM)	relative viability ([2]; first compound 0.06325 µM)	relative viability ([2]; first compound 0.2 µM)	relative viability ([2]; first compound 0.6325 µM)	relative viability ([2]; first compound 2 µM)	relative viability ([3]; first compound 0.1 µM)	relative viability ([3]; first compound 1 µM)	relative viability ([3]; first compound 3.162 µM)	relative viability ([4]; first compound 0.02 µM)	relative viability ([4]; first compound 0.06325 µM)	relative viability ([4]; first compound 0.2 µM)	relative viability ([4]; first compound 0.6325 µM)	relative viability ([4]; first compound 2 µM)	relative viability ([5]; first compound 0.1 µM)	relative viability ([5]; first compound 1 µM)	relative viability ([5]; first compound 3.162 µM)
NCI-H1666	0.858	0.831	0.483	1.07	0.869	0.852	0.937	1.09	1.08	1.04	0.858	0.552	0.566	0.539	0.586	0.579	0.581	0.591	0.693
NCI-H1734	0.813	0.734	0.553	0.748	0.759	0.751	0.671	0.775	0.794	0.706	0.431	0.421	0.365	0.414	0.422	0.395	0.365	0.363	0.279
NCI-H1755	1	0.991	1.06	0.913	0.93	0.917	0.884	0.955	0.996	1.01	1.05	0.582	0.587	0.577	0.606	0.607	0.466	0.411	0.44
NCI-H1792	0.598	0.616	0.688	0.67	0.859	0.77	0.751	0.736	0.604	0.619	0.644	0.325	0.364	0.297	0.337	0.411	0.586	0.722	0.836
NCI-H1793	0.832	1.08	0.905	0.682	0.734	0.72	0.666	0.736	0.45	0.455	0.24	0.258	0.376	0.412	0.392	0.422	0.301	0.329	0.357
NCI-H1915	1.11	1.11	0.716	1.08	1.08	1.13	1.02	1.04	0.793	0.739	0.519	0.367	0.364	0.371	0.349	0.369	0.498	0.52	0.343
NCI-H1944	1.17	1.24	1.18	0.865	0.833	0.793	0.818	0.87	1.07	1.05	0.973	0.191	0.233	0.204	0.201	0.207	0.334	0.358	0.376
NCI-H1975	0.946	1.11	0.519	0.668	0.64	0.652	0.677	0.693	1.14	1.15	0.761	0.392	0.375	0.439	0.424	0.422	0.599	0.662	0.435
NCI-H1993	0.792	0.715	0.67	0.731	0.654	0.612	0.621	0.762	0.941	0.82	0.799	0.453	0.438	0.515	0.493	0.5	0.688	0.583	0.638
NCI-H2009	1.26	1.26	0.955	1.21	1.11	1.19	1.1	1.16	1.13	1.22	0.889	0.459	0.503	0.482	0.479	0.525	0.286	0.304	0.285
NCI-H2023	0.698	0.673	0.396	0.606	0.625	0.609	0.577	0.596	0.983	1	0.644	0.414	0.441	0.403	0.454	0.412	0.389	0.379	0.257
NCI-H2085	0.807	0.515	0.599	0.963	0.978	0.943	0.972	0.965	1.18	1.05	0.738	0.689	0.786	0.652	0.702	0.72	0.466	0.452	0.367
NCI-H2087	1.05	0.956	0.915	1.14	0.82	1.06	1.16	0.945	1.06	1.11	0.771	0.455	0.583	0.441	0.48	0.47	0.282	0.252	0.215
NCI-H2126	0.702	0.729	0.681	0.784	0.774	0.724	0.765	0.788	0.853	0.843	0.849	0.515	0.559	0.5	0.518	0.539	0.364	0.373	0.345
NCI-H2228	0.525	0.872	0.629	0.785	0.84	0.669	0.689	0.921	0.853	0.992	0.244	0.432	0.484	0.352	0.266	0.31	0.819	0.719	0.446
NCI-H2347	0.975	1.03	1.03	1.04	1.03	1.18	1.15	1.12	0.867	0.77	0.608	0.51	0.394	0.547	0.386	0.281	0.438	0.439	0.488
NCI-H2405	0.969	0.834	0.641	0.851	0.826	0.831	0.782	0.923	0.966	0.863	0.679	0.402	0.399	0.416	0.38	0.475	0.552	0.563	0.499
NCI-H3122	1.03	1.01	0.924	0.852	0.847	0.801	0.823	0.746	0.987	1.04	0.972	0.37	0.432	0.364	0.386	0.377	0.181	0.199	0.187
PC-3 [JPC-3]	0.971	0.98	0.881	1.04	1.07	1.05	1.07	1.13	0.745	0.807	0.871	0.497	0.486	0.439	0.485	0.492	0.516	0.54	0.534
PC-14	0.982	0.968	0.955	1.04	0.952	1.02	0.889	1.04	0.977	1.06	0.96	0.553	0.64	0.543	0.57	0.642	0.557	0.636	0.496
RERF-LC-KJ	0.918	0.957	0.923	0.848	0.899	0.734	0.883	0.937	1.05	0.762	0.468	0.41	0.458	0.412	0.409	0.403	1.1	1.18	0.983
SK-LU-1	1.26	0.986	0.557	0.913	1.08	1.3	0.891	0.977	0.747	0.642	0.178	0.514	0.584	0.617	0.502	0.55	0.404	0.412	0.359
SK-MES-1	1.07	1.15	0.722	1.02	0.981	0.925	0.816	0.919	1.21	1.27	0.658	0.707	0.705	0.662	0.666	0.704	0.343	0.424	0.402
SW 1573	0.744	0.693	0.351	0.782	0.741	0.807	0.75	0.765	0.954	0.878	0.561	0.394	0.356	0.383	0.401	0.366	0.418	0.376	0.208
UMC-11	1.04	0.984	0.599	0.985	0.968	1.03	0.958	1.1	0.293	0.267	0.184	0.292	0.337	0.334	0.319	0.335	0.322	0.344	0.324
